Experimental data reported in KR20190126525A, “신규 소듐채널 저해 화합물, 이의 제조방법, 및 이를 포함하는 소듐채널 관련 질환의 예방 또는 치료용 약학적 조성물” (이화여자대학교 산학협력단, priority 2018, dated 2019).

Columns and labels:
[1] = target: T1, Nav1.8 (Homo sapiens, UniProt Q9Y5Y9); assay: VIPR (voltage/ion probe reader) membrane potential assay, Nav1.8; format: cell-based; details: HEK293, HEK cells expressing hNav1.8, veratridine
T1 construct: host or cells: HEK cells

[2] = target: T2, Nav1.7 (Homo sapiens, UniProt Q15858); assay: VIPR (voltage/ion probe reader) membrane potential assay, Nav1.7; format: cell-based; details: for inhibition at 10 µM: HEK293, HEK cells expressing hNav1.7, veratridine; for selective inhibitory activity against Nav1.7: Nav1.7 versus Nav1.8, 10uM, from Table 2
T2 construct: host or cells: HEK cells
T2 sequence (Q15858 whole entry): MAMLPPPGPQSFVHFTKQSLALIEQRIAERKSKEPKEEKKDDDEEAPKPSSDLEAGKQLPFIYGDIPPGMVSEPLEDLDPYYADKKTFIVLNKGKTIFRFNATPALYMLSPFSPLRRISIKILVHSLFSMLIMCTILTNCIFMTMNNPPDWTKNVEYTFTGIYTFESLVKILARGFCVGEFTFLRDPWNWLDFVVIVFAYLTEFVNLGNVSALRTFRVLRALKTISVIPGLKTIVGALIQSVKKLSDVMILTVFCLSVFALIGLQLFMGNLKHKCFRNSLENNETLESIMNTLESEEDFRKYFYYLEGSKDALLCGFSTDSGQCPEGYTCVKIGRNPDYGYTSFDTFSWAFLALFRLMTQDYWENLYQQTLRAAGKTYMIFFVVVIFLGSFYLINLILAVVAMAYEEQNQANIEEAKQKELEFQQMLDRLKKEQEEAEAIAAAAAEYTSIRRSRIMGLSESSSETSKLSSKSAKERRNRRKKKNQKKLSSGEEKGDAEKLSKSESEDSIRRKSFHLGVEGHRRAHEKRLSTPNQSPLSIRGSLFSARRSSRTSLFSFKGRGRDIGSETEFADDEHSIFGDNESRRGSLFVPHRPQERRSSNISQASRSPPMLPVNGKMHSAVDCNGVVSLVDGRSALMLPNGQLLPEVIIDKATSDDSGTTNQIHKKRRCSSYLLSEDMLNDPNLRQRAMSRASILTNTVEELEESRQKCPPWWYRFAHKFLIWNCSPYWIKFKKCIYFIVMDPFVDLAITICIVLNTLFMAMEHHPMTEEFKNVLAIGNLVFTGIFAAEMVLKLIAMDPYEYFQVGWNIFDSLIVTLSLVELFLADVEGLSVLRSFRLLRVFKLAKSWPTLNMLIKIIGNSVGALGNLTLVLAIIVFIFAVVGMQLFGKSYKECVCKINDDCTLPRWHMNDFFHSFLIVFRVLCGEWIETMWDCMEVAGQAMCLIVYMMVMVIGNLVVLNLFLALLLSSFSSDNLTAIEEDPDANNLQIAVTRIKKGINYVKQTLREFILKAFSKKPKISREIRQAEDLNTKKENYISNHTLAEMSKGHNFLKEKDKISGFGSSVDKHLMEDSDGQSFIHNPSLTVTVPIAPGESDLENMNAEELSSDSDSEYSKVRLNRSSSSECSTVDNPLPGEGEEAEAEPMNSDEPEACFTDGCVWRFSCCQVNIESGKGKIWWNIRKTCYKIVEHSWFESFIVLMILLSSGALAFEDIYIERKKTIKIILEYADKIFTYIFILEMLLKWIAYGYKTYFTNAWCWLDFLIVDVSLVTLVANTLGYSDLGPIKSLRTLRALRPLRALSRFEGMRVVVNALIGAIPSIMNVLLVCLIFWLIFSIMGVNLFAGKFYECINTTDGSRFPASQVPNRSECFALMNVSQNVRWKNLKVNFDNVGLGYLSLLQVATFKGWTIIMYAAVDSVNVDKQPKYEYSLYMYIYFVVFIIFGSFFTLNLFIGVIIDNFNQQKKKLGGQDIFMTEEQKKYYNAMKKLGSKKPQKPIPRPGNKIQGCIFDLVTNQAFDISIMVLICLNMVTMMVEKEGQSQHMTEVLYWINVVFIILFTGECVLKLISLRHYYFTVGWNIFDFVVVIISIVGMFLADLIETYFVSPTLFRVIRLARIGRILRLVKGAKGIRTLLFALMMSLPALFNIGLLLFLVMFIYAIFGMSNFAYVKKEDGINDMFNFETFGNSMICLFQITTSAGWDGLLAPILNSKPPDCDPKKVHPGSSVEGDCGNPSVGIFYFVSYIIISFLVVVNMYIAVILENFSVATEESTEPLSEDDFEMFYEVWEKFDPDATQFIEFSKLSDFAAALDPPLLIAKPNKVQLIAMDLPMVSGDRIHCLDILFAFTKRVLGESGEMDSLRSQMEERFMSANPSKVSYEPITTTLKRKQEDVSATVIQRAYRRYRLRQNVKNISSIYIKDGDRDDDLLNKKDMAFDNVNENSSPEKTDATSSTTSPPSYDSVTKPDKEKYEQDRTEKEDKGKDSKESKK

T1 sequence (Q9Y5Y9 whole entry): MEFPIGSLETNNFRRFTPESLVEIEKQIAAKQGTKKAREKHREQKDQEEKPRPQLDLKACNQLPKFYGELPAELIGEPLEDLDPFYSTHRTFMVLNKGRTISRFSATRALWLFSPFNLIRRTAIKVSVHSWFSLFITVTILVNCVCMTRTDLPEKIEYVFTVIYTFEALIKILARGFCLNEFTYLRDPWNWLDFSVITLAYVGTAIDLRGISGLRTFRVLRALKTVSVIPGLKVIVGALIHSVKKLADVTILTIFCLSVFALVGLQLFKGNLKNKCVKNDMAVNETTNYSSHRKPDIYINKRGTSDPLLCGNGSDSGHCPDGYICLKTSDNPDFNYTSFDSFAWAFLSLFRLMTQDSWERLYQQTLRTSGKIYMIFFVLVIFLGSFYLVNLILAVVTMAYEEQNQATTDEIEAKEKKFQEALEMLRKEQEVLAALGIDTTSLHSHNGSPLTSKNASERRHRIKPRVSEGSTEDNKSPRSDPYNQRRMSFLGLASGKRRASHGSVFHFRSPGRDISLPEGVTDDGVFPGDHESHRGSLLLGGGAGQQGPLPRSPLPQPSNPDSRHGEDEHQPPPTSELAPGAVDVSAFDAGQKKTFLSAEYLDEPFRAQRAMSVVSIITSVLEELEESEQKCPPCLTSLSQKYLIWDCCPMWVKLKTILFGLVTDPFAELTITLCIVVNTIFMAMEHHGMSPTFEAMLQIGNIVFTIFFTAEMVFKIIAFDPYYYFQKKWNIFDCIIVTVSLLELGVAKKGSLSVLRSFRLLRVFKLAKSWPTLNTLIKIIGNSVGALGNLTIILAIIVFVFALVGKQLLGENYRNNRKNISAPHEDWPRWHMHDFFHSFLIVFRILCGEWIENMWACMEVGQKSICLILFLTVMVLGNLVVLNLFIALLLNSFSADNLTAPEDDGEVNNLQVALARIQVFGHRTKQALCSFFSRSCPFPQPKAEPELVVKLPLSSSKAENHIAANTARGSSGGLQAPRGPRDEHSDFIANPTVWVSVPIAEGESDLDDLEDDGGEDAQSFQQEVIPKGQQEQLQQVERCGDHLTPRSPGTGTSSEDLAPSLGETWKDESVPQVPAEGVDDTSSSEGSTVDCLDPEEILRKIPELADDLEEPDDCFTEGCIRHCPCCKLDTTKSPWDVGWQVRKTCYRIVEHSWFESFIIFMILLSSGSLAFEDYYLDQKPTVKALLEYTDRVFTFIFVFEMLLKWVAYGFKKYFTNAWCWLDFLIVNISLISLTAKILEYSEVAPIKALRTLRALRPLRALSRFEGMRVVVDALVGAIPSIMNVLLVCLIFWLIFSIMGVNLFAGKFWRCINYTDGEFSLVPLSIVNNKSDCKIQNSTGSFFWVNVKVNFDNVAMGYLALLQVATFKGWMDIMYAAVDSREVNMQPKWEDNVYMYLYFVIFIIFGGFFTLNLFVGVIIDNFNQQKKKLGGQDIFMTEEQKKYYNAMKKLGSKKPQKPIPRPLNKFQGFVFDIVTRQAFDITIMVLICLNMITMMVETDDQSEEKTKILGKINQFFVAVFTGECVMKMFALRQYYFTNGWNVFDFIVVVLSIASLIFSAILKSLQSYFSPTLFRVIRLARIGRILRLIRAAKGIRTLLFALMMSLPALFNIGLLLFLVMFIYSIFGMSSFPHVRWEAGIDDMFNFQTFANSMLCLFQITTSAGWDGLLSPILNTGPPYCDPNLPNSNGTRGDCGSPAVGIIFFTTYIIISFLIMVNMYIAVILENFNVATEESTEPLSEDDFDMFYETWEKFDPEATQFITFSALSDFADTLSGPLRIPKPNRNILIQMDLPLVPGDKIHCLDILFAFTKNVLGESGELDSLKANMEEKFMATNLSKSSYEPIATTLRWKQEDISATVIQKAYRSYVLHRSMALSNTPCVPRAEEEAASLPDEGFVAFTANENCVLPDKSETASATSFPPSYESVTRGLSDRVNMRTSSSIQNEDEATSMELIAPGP

NC(=O)[C@@H](NCc1ccc(Oc2ccc(Cl)cc2)cc1)c1ccccc1 [실시예 11, (S)-2-(4-(4-클로로페녹시)벤질아미노)-2-페닐아세트아미드]
inhibition at 10 µM [1]: 19.5%
inhibition at 10 µM [2]: 3.68%

C[C@H](NCc1c[nH]c2ccc(Br)cc12)C(N)=O [실시예 2, (S)-2-((5-브로모-1H-인돌-3-일)메틸아미노)프로판아미드]
inhibition at 10 µM [1]: 27.4%
inhibition at 10 µM [2]: 59.9%
selective inhibitory activity against Nav1.7 [2]: 선택적인 저해 활성

CC(CCc1ccccc1)NCc1ccc(Oc2ccc(Cl)cc2)cc1 (stereo not shown) [실시예 24, N-(4-(4-클로로페녹시)벤질)-4-페닐부탄-2-아민]
inhibition at 10 µM [2]: 10.2%

COc1cc(CNCc2c[nH]c3ccccc23)cc(OC)c1OC [실시예 29, N-((1H-인돌-3-일)메틸)-1-(3,4,5-트리메톡시페닐)메탄아민]
inhibition at 10 µM [2]: 16.4%

COc1cc(CNCc2c[nH]c3cc(F)ccc23)cc(OC)c1OC [실시예 35, 1-(6-플루오로-1H-인돌-3-일)-N-(3,4,5-트리메톡시벤질)메탄아민]
inhibition at 10 µM [2]: 38.2%

COc1cc(CNCc2ccc(Oc3ccc(F)cc3)cc2)cc(OC)c1OC [실시예 31, N-(4-(4-플루오로페녹시)벤질)-1-(3,4,5-트리메톡시페닐)메탄아민]
inhibition at 10 µM [2]: 16.6%

COc1cc(CNCc2c(-c3ccccc3)[nH]c3ccccc23)cc(OC)c1OC [실시예 30, 1-(2-페닐-1H-인돌-3-일)-N-(3,4,5-트리메톡시페닐)메탄아민]
inhibition at 10 µM [1]: 3.3%
inhibition at 10 µM [2]: 12.1%

C[C@H](NCc1c[nH]c2ccc(Cl)cc12)C(N)=O [실시예 3, (S)-2-((5-클로로-1H-인돌-3-일)메틸아미노)프로판아미드]
inhibition at 10 µM [1]: 20.7%
inhibition at 10 µM [2]: 2.46%

COc1cc(CNCc2ccc(Oc3ccc(Cl)cc3)cc2)cc(OC)c1OC [실시예 32, N-(4-(4-클로로페녹시)벤질)-1-(3,4,5-트리메톡시페닐)메탄아민]
inhibition at 10 µM [2]: 15.2%

COc1ccc2[nH]cc(CNCc3cc(OC)c(OC)c(OC)c3)c2c1 [실시예 36, 1-(5-메톡시-1H-인돌-3-일)-N-(3,4,5-트리메톡시벤질)메탄아민]
inhibition at 10 µM [2]: 23.7%

COc1cc(CNC(=O)c2ccc3ccccc3n2)cc(OC)c1OC [실시예 41, N-(3,4,5-트리메톡시벤질)퀴놀린-2-카복스아미드]
inhibition at 10 µM [1]: 19.3%
inhibition at 10 µM [2]: 71.7%
selective inhibitory activity against Nav1.7 [2]: 선택적인 저해 활성

CC(CCc1ccccc1)NC(=O)c1ccc(-c2ccccc2)cc1 (stereo not shown) [실시예 25, N-(4-페닐부탄-2-일)-[1,1'-바이페닐]-4-카복스아미드]
inhibition at 10 µM [1]: 31.2%
inhibition at 10 µM [2]: 84%
selective inhibitory activity against Nav1.7 [2]: 선택적인 저해 활성

COc1ccc2[nH]cc(CN[C@@H](C)C(N)=O)c2c1 [실시예 5, (S)-2-((5-메톡시-1H-인돌-3-일)메틸아미노)프로판아미드]
inhibition at 10 µM [1]: 18.3%
inhibition at 10 µM [2]: 4.3%

CC(CCc1ccccc1)NCc1ccc(N2CCOCC2)cc1 (stereo not shown) [실시예 14, N-(4-모폴리노벤질)-4-페닐부탄-2-아민]
inhibition at 10 µM [1]: 10.2%
inhibition at 10 µM [2]: 87.1%
selective inhibitory activity against Nav1.7 [2]: 선택적인 저해 활성

NC(=O)[C@@H](NCc1ccc(Oc2ccc(F)cc2)cc1)c1ccccc1 [실시예 10, (S)-2-(4-(4-플루오로페녹시)벤질아미노)-2-페닐아세트아미드]
inhibition at 10 µM [1]: 11.3%
inhibition at 10 µM [2]: 31.3%

COc1cc(CNCc2c[nH]c3c([N+](=O)[O-])cccc23)cc(OC)c1OC [실시예 37, 1-(7-니트로-1H-인돌-3-일)-N-(3,4,5-트리메톡시벤질)메탄아민]
inhibition at 10 µM [1]: 8.81%
inhibition at 10 µM [2]: 4.08%

CC(CCc1ccccc1)NCc1c[nH]c2ccc(Cl)cc12 (stereo not shown) [실시예 21, N-((5-클로로-1H-인돌-3-일)메틸)-4-페닐부탄-2-아민]
inhibition at 10 µM [2]: 38.5%

CC(CCc1ccccc1)NCc1ccc(Oc2ccc(F)cc2)cc1 (stereo not shown) [실시예 23, N-(4-(4-플루오로페녹시)벤질)-4-페닐부탄-2-아민]
inhibition at 10 µM [2]: 33.9%

CC(CCc1ccccc1)NCc1ccc(N2CCN(C)CC2)cc1 (stereo not shown) [실시예 13, N-(4-(4-메틸피페라진-1-일)벤질)-4-페닐부탄-2-아민]
inhibition at 10 µM [1]: 4.97%
inhibition at 10 µM [2]: 66.4%
selective inhibitory activity against Nav1.7 [2]: 선택적인 저해 활성

CC(CCc1ccccc1)NCc1ccc(-c2ccc(Cl)cc2)o1 (stereo not shown) [실시예 15, N-((5-(4-클로로페닐)퓨란-2-일)메틸)-4-페닐부탄-2-아민]
inhibition at 10 µM [1]: 42.2%
inhibition at 10 µM [2]: 34.6%

COc1cc(CNCc2c[nH]c3ccc(Br)cc23)cc(OC)c1OC [실시예 34, 1-(5-브로모-1H-인돌-3-일)-N-(3,4,5-트리메톡시벤질)메탄아민]
inhibition at 10 µM [1]: 13.9%
inhibition at 10 µM [2]: 27%

CC(CCc1ccccc1)NCc1ccc(Oc2ccc(C#N)cc2)cc1 (stereo not shown) [실시예 20, 4-(4-((4-페닐부탄-2-일)아미노메틸)페녹시)벤조나이트릴]
inhibition at 10 µM [1]: 42.2%
inhibition at 10 µM [2]: 106%
selective inhibitory activity against Nav1.7 [2]: 선택적인 저해 활성

NC(=O)[C@@H](NCc1cc(-c2ccc(Cl)cc2)on1)c1ccccc1 [실시예 9, (S)-2-((5-(4-클로로페닐)이속사졸-3-일)메틸아미노)-2-페닐아세트아미드]
inhibition at 10 µM [1]: 1.77%

COc1cc(CNC(=O)c2ccc(-c3ccccc3)cc2)cc(OC)c1OC [실시예 38, N-(3,4,5-트리메톡시벤질)-[1,1'-바이페닐]-4-카복스아미드]
inhibition at 10 µM [1]: 18.3%
inhibition at 10 µM [2]: 6.9%

CC(CCc1ccccc1)NCc1ccc(-c2cncnc2)cc1 (stereo not shown) [실시예 19, 4-페닐-N-(4-(피리미딘-5-일)벤질)부탄-2-아민]
inhibition at 10 µM [2]: 29.8%

COc1cc(CNCc2c[nH]c3ccc(OCc4ccccc4)cc23)cc(OC)c1OC [실시예 33, 1-(5-(벤질옥시)-1H-인돌-3-일)-N-(3,4,5-트리메톡시벤질)메탄아민]
inhibition at 10 µM [1]: 5.87%
inhibition at 10 µM [2]: 34.9%

NC(=O)[C@@H](NCc1c[nH]c2ccc(Cl)cc12)c1ccccc1 [실시예 7, (S)-2-((5-클로로-1H-인돌-3-일)메틸아미노)-2-페닐아세트아미드]
inhibition at 10 µM [1]: 3.45%

CC(CCc1ccccc1)NC(=O)c1cccc2ccccc12 (stereo not shown) [실시예 27, N-(4-페닐부탄-2-일)-1-나프타미드]
inhibition at 10 µM [1]: 59.2%
inhibition at 10 µM [2]: 4.12%

CC(CCc1ccccc1)NCc1ccc(-c2cccc(C(F)(F)F)c2)o1 (stereo not shown) [실시예 12, 4-페닐-N-((5-(3-(트리플루오로메틸)페닐)퓨란-2-일)메틸)부탄-2-아민]
inhibition at 10 µM [1]: 54.4%
inhibition at 10 µM [2]: 104%
selective inhibitory activity against Nav1.7 [2]: 선택적인 저해 활성

Cc1onc(-c2ccc(Cl)cc2)c1C(=O)NC(C)CCc1ccccc1 (stereo not shown) [실시예 28, 3-(4-클로로페닐)-5-메틸-N-(4-페닐부탄-2-일)이속사졸-4-카복스아미드]
inhibition at 10 µM [2]: 24.4%

CC(CCc1ccccc1)NCc1c[nH]c2ccccc12 (stereo not shown) [실시예 22, N-((1H-인돌-3-일)메틸)-4-페닐부탄-2-아민]
inhibition at 10 µM [2]: 14.2%

C[C@H](NCc1c[nH]c2ccc(OCc3ccccc3)cc12)C(N)=O [실시예 1, (S)-2-((5-(벤질옥시)-1H-인돌-3-일)메틸아미노)프로판아미드]
inhibition at 10 µM [1]: 19.7%
inhibition at 10 µM [2]: 5.13%

COc1ccc(-c2ccc(CNC(C)CCc3ccccc3)o2)cc1Cl (stereo not shown) [실시예 18, N-((5-(3-클로로-4-메톡시페닐)퓨란-2-일)메틸)-4-페닐부탄-2-아민]
inhibition at 10 µM [1]: 6.75%
inhibition at 10 µM [2]: 65.9%
selective inhibitory activity against Nav1.7 [2]: 선택적인 저해 활성
